Read-outs that look alike come from different tables or passages of the source.
What was measured:
[1] = target: T1, CYP11B1 (Homo sapiens, UniProt P15538); assay: SAD study: plasma cortisol, 11-deoxycortisol and 11-DOC after Cortrosyn challenge; assay type: in vivo
T1 construct: endogenous in cells; host or cells: adrenal cortex of healthy human subjects (in vivo, oral dosing)
T1 sequence (P15538 25-503): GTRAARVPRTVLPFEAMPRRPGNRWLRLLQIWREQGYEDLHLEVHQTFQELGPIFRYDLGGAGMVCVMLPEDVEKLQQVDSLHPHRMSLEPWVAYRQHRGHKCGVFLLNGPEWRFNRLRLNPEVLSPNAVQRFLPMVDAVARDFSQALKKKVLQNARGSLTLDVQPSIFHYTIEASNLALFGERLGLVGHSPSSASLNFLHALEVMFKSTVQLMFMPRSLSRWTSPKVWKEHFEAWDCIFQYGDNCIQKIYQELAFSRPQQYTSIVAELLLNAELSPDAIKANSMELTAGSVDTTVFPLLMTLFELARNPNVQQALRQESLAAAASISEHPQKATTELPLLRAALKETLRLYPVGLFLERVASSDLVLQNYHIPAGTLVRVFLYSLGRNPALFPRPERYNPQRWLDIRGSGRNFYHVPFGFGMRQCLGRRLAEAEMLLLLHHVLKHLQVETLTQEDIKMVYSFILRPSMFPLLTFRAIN
Protocol: Single doses of (R)-compound 1 reduced plasma and urine aldosterone levels by approximately 85% to 90% in a dose-dependent manner, consistently reaching a maximum effect at a dose of 10 mg (R)-compound 1 under the different conditions tested (Cortrosyn® challenge, standing, normal salt diet, and low salt diet conditions). No change in plasma cortisol levels was apparent across the full dose range tested (0 to 360 mg (R)-compound 1).
A maximum effect on aldosterone reduction was consistently achieved at a dose of 10 mg under the different conditions tested in healthy subjects (Cortrosyn® challenge, standing, normal salt diet, and low salt diet conditions). No change in plasma cortisol levels after the Cortrosyn challenge was apparent across the full dose range tested (0 to 360 mg of (R)-compound 1).

[2] = Renal impairment study, single 10 mg dose: safety; assay type: in vivo
Source text: One subject with end stage disease experienced an unrelated SAE of metabolic encephalopathy and a moderate unrelated adverse event (AE) of tremor. One control subject experienced a mild AE of diarrhea, which was considered to be related to study drug by the Investigator. […] It is not necessary to dose adjust (R)-compound 1 for patients with renal impairment.
Overall, there were no deaths, 1 (3.0%) subject experienced an SAE, and no subjects discontinued due to a TEAE. Overall, 2 (6.1%) subjects experienced a total of 3 TEAEs: 1 (10.0%) subject in the control group experienced a TEAE of mild diarrhea following administration of (R)-compound 1 that was considered related to the study drug; no subjects experienced a TEAE in the (R)-moderate to severe renal impairment group; and 1 (8.3%) subject in the kidney failure group experienced 2 TEAEs of moderate tremor and severe metabolic encephalopathy (recorded as an SAE) following administration of (R)-compound 1 that were considered not related to the study drug. The SAE was thought to be secondary to the concomitant medications. As such, there was no apparent increase in incidence or severity of AEs with decreased renal function. There were no AEs, trends, or clinically meaningful changes in laboratory parameters. There were no AEs or clinically significant changes observed in vital signs, physical examinations, or 12-lead ECGs.

[3] = MAD study: urine pharmacokinetics; assay type: in vivo, human; design: CL renal: unit not given here; conditions: for Ae, D 1 (amount excreted in urine, Day 1) / Ae, D 10 (amount excreted in urine, Day 10) / Fe, D 1 (fraction of dose excreted renally, Day 1) / Fe, D 10 (fraction of dose excreted renally, Day 10) / CL renal: mean; for CL renal: human, urine, oral
Source text: For each subject, the study consisted of: • A screening period of up to 28 days; • A 5-day inpatient run-in period during which subjects adhered to a controlled, standardized diet and underwent baseline PD assessments; • A 15-day inpatient treatment period, during which subjects received (R)-compound 1 or placebo once daily for 10 days while adhering to a controlled, standardized diet, followed by PK and PD sampling over an additional 5 days; and • A follow-up visit 3 days (1 day) after discharge from the clinical unit. • A cortisol stimulation test (Cohorts 1 and 2 only) and standing aldosterone assessment (all cohorts) were performed on Days 1 and 10. Serial blood samples for PK and PD were obtained prior to and at specified time points over 24 hours after dosing on Day 1 as well as prior to and at specified time points over 120 hours after dosing on Day 10. In addition, blood samples for PK were collected prior to dosing on Days 8 and 9. Urine for PK and PD measurements was collected over 24 hours starting just prior to dosing on Day 1 as well as over 120 hours starting just prior to dosing on Day 10.

SMILES: CCC(=O)N[C@@H]1CCCc2c(-c3ccc4c(c3)CCC(=O)N4C)cncc21 [(R)-Compound 1, (R)—N-(4-(1-methyl-2-oxo-1,2,3,4-tetrahydroquinolin-6-yl)-5,6,7,8-tetrahydroisoquinolin-8-yl)propionamide]
- plasma cortisol levels ([1]; full dose range tested (0 to 360 mg), Cortrosyn challenge): No change
- doses at which 11-DOC increased ([1]; single doses): ≥ 90 mg
- 11-deoxycortisol ([1]; single doses up to 360 mg): increases in 11-deoxycortisol (at doses of 180 mg and 360 mg)
- subjects experiencing a TEAE (mild diarrhea, related) ([2]; control group): 1 (10.0%)
- subjects experiencing TEAEs (moderate tremor, severe metabolic encephalopathy, not related) ([2]; kidney failure group): 1 (8.3%)
- subjects experiencing a TEAE ([2]; moderate to severe renal impairment group): no subjects
- subjects experiencing TEAEs ([2]; overall, single 10 mg dose): 2 (6.1%)
- subjects experiencing an SAE ([2]; overall, single 10 mg dose): 1 (3.0%)
- tolerability ([2]; single 10 mg dose, varying degrees of renal function): well tolerated
- Ae, D 1 (amount excreted in urine, Day 1) ([3]; 0.5 mg QD, normal salt diet): 39952.889 ng
- Ae, D 10 (amount excreted in urine, Day 10) ([3]; 0.5 mg QD, normal salt diet): 168181.917 ng
- Fe, D 1 (fraction of dose excreted renally, Day 1) ([3]; 0.5 mg QD, normal salt diet): 7.991%
- Fe, D 10 (fraction of dose excreted renally, Day 10) ([3]; 0.5 mg QD, normal salt diet): 33.636%
- Ae, D 1 (amount excreted in urine, Day 1) ([3]; 1.5 mg QD, normal salt diet): 115762.122 ng
- Ae, D 10 (amount excreted in urine, Day 10) ([3]; 1.5 mg QD, normal salt diet): 459968.526 ng
- Fe, D 1 (fraction of dose excreted renally, Day 1) ([3]; 1.5 mg QD, normal salt diet): 7.717%
- Fe, D 10 (fraction of dose excreted renally, Day 10) ([3]; 1.5 mg QD, normal salt diet): 30.665%
- Ae, D 1 (amount excreted in urine, Day 1) ([3]; 2.5 mg QD, low salt diet): 1687233.672 ng
- Ae, D 10 (amount excreted in urine, Day 10) ([3]; 2.5 mg QD, low salt diet): 766791.190 ng
- Fe, D 1 (fraction of dose excreted renally, Day 1) ([3]; 2.5 mg QD, low salt diet): 6.749%
- Fe, D 10 (fraction of dose excreted renally, Day 10) ([3]; 2.5 mg QD, low salt diet): 30.672%
- Ae, D 1 (amount excreted in urine, Day 1) ([3]; 2.5 mg QD, normal salt diet): 270541.533 ng
- Ae, D 10 (amount excreted in urine, Day 10) ([3]; 2.5 mg QD, normal salt diet): 826482.355 ng
- Fe, D 1 (fraction of dose excreted renally, Day 1) ([3]; 2.5 mg QD, normal salt diet): 10.822%
- Fe, D 10 (fraction of dose excreted renally, Day 10) ([3]; 2.5 mg QD, normal salt diet): 33.059%
- Ae, D 1 (amount excreted in urine, Day 1) ([3]; 5.0 mg QD, low salt diet): 317339.306 ng
- Ae, D 10 (amount excreted in urine, Day 10) ([3]; 5.0 mg QD, low salt diet): 1677304.469 ng
- Fe, D 1 (fraction of dose excreted renally, Day 1) ([3]; 5.0 mg QD, low salt diet): 6.347%
- Fe, D 10 (fraction of dose excreted renally, Day 10) ([3]; 5.0 mg QD, low salt diet): 33.546%
- dose recovered unchanged in the urine, average ([3]; MAD study): approximately 7%
- CL renal ([3]; 0.5 mg, 0.5 mg QD, normal salt diet, read-out: CLR, D 1 (renal clearance, Day 1) (converted)): 0.00888
- CL renal ([3]; 0.5 mg, 0.5 mg QD, normal salt diet, read-out: CLR, D 10 (renal clearance, Day 10) (converted)): 0.00822
- CL renal ([3]; 1.5 mg, 1.5 mg QD, normal salt diet, read-out: CLR, D 1 (renal clearance, Day 1) (converted)): 0.00958
- CL renal ([3]; 1.5 mg, 1.5 mg QD, normal salt diet, read-out: CLR, D 10 (renal clearance, Day 10) (converted)): 0.00733
- CL renal ([3]; 2.5 mg, 2.5 mg QD, low salt diet, read-out: CLR, D 1 (renal clearance, Day 1) (converted)): 0.00797
- CL renal ([3]; 2.5 mg, 2.5 mg QD, low salt diet, read-out: CLR, D 10 (renal clearance, Day 10) (converted)): 0.0085
- CL renal ([3]; 2.5 mg, 2.5 mg QD, normal salt diet, read-out: CLR, D 1 (renal clearance, Day 1) (converted)): 0.0136
- CL renal ([3]; 2.5 mg, 2.5 mg QD, normal salt diet, read-out: CLR, D 10 (renal clearance, Day 10) (converted)): 0.0111
- CL renal ([3]; 5 mg, 5.0 mg QD, low salt diet, read-out: CLR, D 1 (renal clearance, Day 1) (converted)): 0.00815
- CL renal ([3]; 5 mg, 5.0 mg QD, low salt diet, read-out: CLR, D 10 (renal clearance, Day 10) (converted)): 0.00822

From US20240277698A1, “METHODS OF USING ALDOSTERONE SYNTHASE INHIBITORS” (CINCOR PHARMA, INC., priority 2021, published 2024)
